Measured values published in patent US8222260B2, “Substituted 6-anilinopurine derivatives as inhibitors of cytokinin oxidase/dehydrogenase and preparations containing these derivatives” (Univerzita Palackego V Olomouci, priority 2007, dated 2012).

How the values were obtained:
[1] = system: Human diploid fibroblasts HCA; experiment: Anti-aging activity: senescence-associated beta-galactosidase in human fibroblasts; format: cell-based
Procedure: In this example, effects of the compounds of this invention on the activity of a senescence biomarker senescence-associated β-galactosidase was studied. Human diploid fibroblasts HCA of various passage levels were used for this purpose. The tested compounds were added to the medium at each passage. After the incubation period, cells were washed with PBS and fixed with 2% formaldehyde and 0.2% glutaraldehyde in PBS. After another wash with PBS, they were incubated with the staining solution comprising potassium ferricyanide (5 mM), potassium ferrocyanide (5 mM), MgCl2 (2 mM), X-gal (5-bromo-4-chloro-3-indolyl-β-D-galactopyranoside) (1 mg/ml), in citric/phosphate buffer (pH 6.0) at 37° C. (without CO2) for at least 1 hour. Following the incubation period, the numbers of cells expressing senescence-associated β-galactosidase (blue cells) were counted using light microscope.

[2] = system: Rat C6 glioma (ATCC No. CCL107); experiment: Anti-inflammatory activity: isoproterenol-induced cAMP synthesis (ELISA); format: cell-based; settings: cAMP after 30 min, induced by (−)-isoproterenol
Procedure: Anti-inflammatory activity of several of the substituted 6-anilinopurine derivatives of this invention was determined; kinetin was also evaluated as a control. Rat C6 glioma (ATCC No. CCL107) was cultivated in monolayer in serum-free chemically defined medium containing Ham's F10/minimal essential medium (1:1 v/v), 2 mM L-glutamine, 1% (v/v) minimal essential medium vitamins (100×), 1% (v/v) minimal essential medium nonessential amino acids (100×), 100 U/ml penicillin, […], and 30 nM sodium selenite. Incubation was performed at 37° C. in a 100% humidified atmosphere. The assays were performed in the logarithmic growth phase at a density of 2.5×10^5 cells/cm^2. Intracellular cAMP synthesis was induced by addition of 5 mM (−)-isoproterenol; various amounts of test compounds were added at the same time as the (−)-isoproterenol. After 30 min incubation, the cellular amount of cAMP was determined using ELISA (cAMP-enzyme immunoassay kit from Amersham). The I50 values were determined from the dose-response curve in duplicate.

[3] = system: Salmonella typhimurium TA98 and TA100; experiment: Ames test; format: cell-based; settings: 2.5 to 5000 μg/plate
Procedure: Amest test was used in order to exclude mutagenic effect of 2-chloro-6-(4-hydroxyanilino)purine. Histidin auxotrophs of Salmonella typhimurium TA98 and TA100 were used as indicator strains and the test was carried out according to standard protocols (Ames et al., Mutation Research, 31, 347-364 (1975); Maron et al., Mutation Research, 113, 173-215 (1983)). Tested concentrations were as follows: 2.5, 5.0, 15, 50, 500, 1500, a 5000 μg/plate. The compound was not mutagenic even in the concentrations exceeding its solubility limit in the culture medium.

[4] = system: erytroid leukemia cell line K-562; experiment: Calcein AM cytotoxicity assay; format: cell-based, human; settings: 72 hours
Description: (§1) Absence of toxic effects against mammalian (especially human) cell lines in a wide concentration range is one of the requirements on compounds intended for use in agriculture and medicine. Because toxic compounds negatively influence metabolic processes in cells, many standard cytotoxicity assays are based on measurement of metabolisation rate of various artificial substrates. Resulting product is then quantified e.g. by means of spectrometry. The assays can be easily modified for use in 96-well plates. For evaluation of cytotoxic effect of compounds of this invention, a microtiter assay based on quantification of metabolisation of Calcein AM was used. The assay is widely used in drug screening programs and in chemosensitivity testing. In live cells, Calcein AM is enzymatically hydrolysed and accumulation of resulting calcein is manifested by green fluorescence.
(§2) Following human cell lines were used for routine screening of the compounds: T-lymphoblastic leukemia cell line CEM, promyelocytic leukemia cell line HL-60, erytroid leukemia cell line K-562, breast carcinoma cell line MCF-7, osteosarcoma cell line HOS and melanoma cell line G-361. Mouse cell lines B16-F10 (melanoma) and NIH-3T3 (fibroblasts) were used as well. The cells were maintained in Nunc/Corning 80 cm^2 plastic tissue culture flasks and cultured in cell culture medium (DMEM with 5 g/l glucose, 2 mM glutamine, 100 U/ml penicillin, 100 μg/ml streptomycin, 10% fetal calf serum and sodium bicarbonate).
(§3) The cell suspensions were prepared and diluted according to the particular cell type and the expected target cell density (2.500-30.000 cells per well based on cell growth characteristics) and pippetted (80 μl) into 96-well plates. Inoculates were allowed a pre-incubation period of 24 hours at 37° C. and 5% CO2 for stabilisation. Tested compound was added in total volume of 20 μl of water at time zero. Usually, test compound was evaluated at six 3-fold dilutions. In routine testing, the highest concentration tested was 166.6 μM. All drug concentrations were tested in triplicates. Incubations of cells with the test compounds lasted for 72 hours at 37° C., in 5% CO2 atmosphere and 100% humidity. At the end of incubation period Calcein AM in PBS was added into final concentration of 1 μg/ml. After another 1 hour of incubation fluorescence (FD) was measured with the Labsystem FIA Reader Fluoroscan Ascent (UK). Growth inhibition (GI) was estimated using the following equitation: GI=(mean FDdrug exposed wells−mean FDblank)/(mean FDcontrol wells−mean FDblank)×100%. The GI50 value, the drug concentration causing 50% reduction of Calcein AM conversion, was calculated from the obtained dose response curves.

melanoma cell line G-361 = experiment: Calcein AM cytotoxicity assay; format: cell-based, human; settings: 72 hours
Description: as §1, §2, §3

[5] = system: osteosarcoma cell line HOS; experiment: Calcein AM cytotoxicity assay; format: cell-based, human; settings: 72 hours
Description: as §1, §2, §3

[6] = system: T-lymphoblastic leukemia cell line CEM; experiment: Calcein AM cytotoxicity assay; format: cell-based, human; settings: 72 hours
Description: as §1
(§4) Mouse cell lines B16-F10 (melanoma) and NIH-3T3 (fibroblasts) were used as well. The cells were maintained in Nunc/Corning 80 cm^2 plastic tissue culture flasks and cultured in cell culture medium (DMEM with 5 g/l glucose, 2 mM glutamine, 100 U/ml penicillin, 100 μg/ml streptomycin, 10% fetal calf serum and sodium bicarbonate).
as §3, with “In routine testing, the highest concentration tested was 166.6 μM.” left out, “FDblank)×100%.” for “FDblank)×100%. The GI50 value, the drug concentration causing 50% reduction of Calcein AM conversion, was calculated from the obtained dose response curves.”

[7] = system: breast carcinoma cell line MCF-7; experiment: Calcein AM cytotoxicity assay; format: cell-based, human; settings: 72 hours, read-out: GI50 MCF7
Description: as §1, §4
as §3, with “In routine testing, the highest concentration tested was 166.6 μM.” left out, “FDblank)×100%.” for “FDblank)×100%. The GI50 value, the drug concentration causing 50% reduction of Calcein AM conversion, was calculated from the obtained dose response curves.”

[8] = system: promyelocytic leukemia cell line HL-60; experiment: Calcein AM cytotoxicity assay; format: cell-based, human; settings: 72 hours, read-out: GI50 HL60
Description: as §1, §4
as §3, with “In routine testing, the highest concentration tested was 166.6 μM.” left out, “FDblank)×100%.” for “FDblank)×100%. The GI50 value, the drug concentration causing 50% reduction of Calcein AM conversion, was calculated from the obtained dose response curves.”

B16-F0 = experiment: Calcein AM cytotoxicity assay; format: cell-based, Mouse; settings: 72 hours
NIH-3T3 (fibroblasts) = experiment: Calcein AM cytotoxicity assay; format: cell-based, Mouse; settings: 72 hours
Description: as §1, §4
as §3, with “In routine testing, the highest concentration tested was 166.6 μM.” left out, “FDblank)×100%.” for “FDblank)×100%. The GI50 value, the drug concentration causing 50% reduction of Calcein AM conversion, was calculated from the obtained dose response curves.”

SMILES	Senescent Cells (%) HCA passage 25 ([1]; passage 25, cells expressing senescence-associated beta-galactosidase)	Senescent Cells (%) HCA passage 50 ([1]; passage 50, cells expressing senescence-associated beta-galactosidase)	Senescent Cells (%) HCA passage 80 ([1]; passage 80, cells expressing senescence-associated beta-galactosidase)	IC50 ([2]; Rattus norvegicus, C6 glioma, 0.5 h, read-out: I50)	Effect (anti-inflammatory activity) [2]	mutagenic effect [3]	GI50 [4]	GI50 (melanoma cell line G-361)	GI50 [5]	GI50 [6]	GI50 [7]	GI50 [8]	GI50 (B16-F0)	GI50 (NIH-3T3 (fibroblasts))
Oc1ccc(Nc2nc(Cl)nc3nc[nH]c23)cc1 [Compound 10, 2-chloro-6-(4-hydroxyanilino)purine]	4%	6%	22%	13 µM	Inhibition	not mutagenic	–	–	–	–	–	–	–	–
Oc1cccc(CNc2ncnc3nc[nH]c23)c1 [meta-topolin, reference compound]	–	–	–	–	–	–	128 µM	> 167 µM	> 167 µM	90.1 µM	> 167 µM	79.2 µM	90.6 µM	> 167 µM
Oc1ccccc1CNc1ncnc2nc[nH]c12 [ortho-topolin, reference compound]	–	–	–	–	–	–	> 167 µM	103 µM	> 167 µM	69.2 µM	> 167 µM	78 µM	150 µM	> 167 µM
